Four compounds from patent publication US20230414535A1, “PHARMACEUTICAL COMPOSITION COMPRISING UBIQUINONE-5 AND METHOD OF USE THEREOF” (The Trustees of Columbia University in the City of New York, priority 2021, published 2023) can be followed below.

One series concerns isolated mitochondria. In words: Complex II-dependent state 4 (leak) respiration with simultaneous mitochondrial membrane potential measurement. The conditions noted are these: succinate in the presence of oligomycin, FIG. 1. Format: biochemical. The source says:
FIGS. 1a-c are representative tracings of complex II-dependent state 4 respiration (leak respiration) using succinate in the presence of oligomycin are depicted above and tracings of simultaneously measured mitochondrial membrane potential (ΔΨ) are shown below, for (a) propofol, (b) decylubiquinone, and (c) ubiquinone-5;
In FIG. 1, representative tracings of Complex II-dependent state 4 respiration (leak respiration) using succinate in the presence of oligomycin are depicted in the top three curves and tracings of simultaneously measured mitochondrial membrane potential (ΔΨ) are shown in the bottom three curves. The numbers in the tracings above show rates of oxygen consumption (nmol·mL-1·min-1·mg mitochondrial protein-1). Addition of propofol (FIG. 1 a) decylubiquinone (DB) (FIG. 1b) or ubiquinone-5 (FIG. 1c) are indicated. ΔΨ was determined as a function of triphenylphosphonium (TPP+) concentration in the bath. […] This mechanism is highly reminiscent of the effect of the anesthetic, propofol (FIG. 1a), in isolated mitochondria.

For series [1], the system named is isolated perfused murine hearts. In words: Surface ECG of isolated perfused murine hearts. The following applies: isolated perfused heart. As to the method:
In FIGS. 2a and 2b, surface ECGs were recorded continuously for isolated perfused murine hearts that were prepared and stabilized. Hearts were exposed to either decylubiquinone or ubiquione-5. […] Thus, quinone analogs suppressed electrical signaling in the heart in a reversible manner.

The test system of series [2] is isolated forebrain mitochondria. Nature of the series: Oligomycin-induced state 4 respiration and ΔΨm in isolated forebrain mitochondria. The series is classed as biochemical. The conditions noted are these: for effect on GABA- or Ub5-induced respiration/leak: added after GABA or Ub5, picrotoxin 1 mM, PLP 10 mM. As to the method: Turning to FIGS. 10a and b, oligomycin-induced state 4 was initiated in isolated forebrain mitochondria using succinate. Tracings of O2 consumption (FIG. 10a) with simultaneous ΔΨm measurement (FIG. 10b) are depicted. Numbers (FIG. 10a) are rates of respiration (nmol·mL-1·min-1·mg mitochondrial protein-1). GABA (10 mM) or Ub5 ([…]) were added. Aralar was inhibited with pyridoxal 5′-phosphate (PLP)(10 mM). Picrotoxin (GABAA receptor antagonist (1 mM)) and GABA or Ub5 alone served as controls. Black solid lines are slopes of ΔΨm prior to and after inhibitor. Decrease in respiration rate with concomitant stabilization or rise in ΔΨm indicates inhibition of leak. […] Thus, PLP blocked GABA import via Aralar. […] Aralar is best described as an aspartate-glutamate carrier within mitochondria. Aralar is the solute that exports aspartate from neuronal mitochondria in exchange for glutamate plus a proton. Thus, Aralar causes leak by translocating protons across the inner mitochondrial membrane during solute transport. Aralar causes leak that can degrade ΔΨm. Aralar is a neuronal transporter that sequesters GABA within the mitochondrial matrix. Many anesthetic agents bind to the GABAA receptor and potentiate GABAergic signaling.

As to `CCCCCCCCCCC1=C(C)C(=O)C(OC)=C(OC)C1=O` [decylubiquinone], in the series with isolated mitochondria, the “proton leak (state 4 respiration)” value is listed as “increased proton leak”. Besides, the “mitochondrial membrane potential (ΔΨ)” value in the series with isolated mitochondria (determined via TPP+) was “decline in ΔΨ”. Besides, the “ECG upon cessation of exposure and washout” value in series [1] (after washout) is listed as “sinus rhythm normalized”. For the same compound, the “surface ECG effect during exposure” value in series [1] (during exposure, FIG. 2) was “rapidly induced bradycardia that persisted throughout the duration of exposure”.

With `NCCCC(=O)O` [GABA], the “proton leak (respiration and ΔΨm)” value in series [2] (succinate, oligomycin-induced state 4, GABA (10 mM) or Ub5 (100 mM), FIG. 10) is reported as “induced a slow increase in proton leak”.

Regarding Picrotoxin, in series [2], the “effect on GABA- or Ub5-induced respiration/leak” value is “minimal effect”.

In the case of `Cc1ncc(COP(=O)(O)O)c(C=O)c1O` [PLP, pyridoxal 5′-phosphate], in series [2] (PLP 10 mM added after GABA or Ub5), the “effect on ΔΨm after GABA or Ub5” value was “stabilized ΔΨm”. The “effect on ΔΨm with Ub5” value in series [2] (PLP 10 mM added after Ub5) is on record as “acutely increased ΔΨm”. The “effect on GABA- or Ub5-induced respiration/leak” value in series [2] is “normalized respiration to pre-GABA or Ub5 levels”.
